Assay [1] deals with sweet taste (10% sucrose reference). The assay is described as follows: Duration of sweet taste blockade: sensory panelist rates sweetness intensity (SI) of 10% sucrose after 5 min oral exposure to sample. Type of assay: in vivo, human. The conditions noted are these: for SI: 0-10 scale, 10% sucrose=10; for sweet taste inhibition following exposure of the oral cavity (in words): in vivo. The protocol:
A standard method was developed to quantify the duration of sweet taste blockade for the gymnemic acid compositions of the present invention. […] In all cases, sucrose was used as the sweetener in sweet taste blockade quantification. Thus, 10%, 8%, 6%, 4%, and 2% (w/v) sucrose solutions in reverse osmosis (RO) purified water were freshly prepared and, at the beginning of each experiment, 15 mL samples of each sucrose solution were used to calibrate sensory panelist on sweetness intensity. The sensory panelist is described as a person with training in sensory evaluation with at least 1 year of experience as a sensory panelist in the area of gustatation, and preferably with training in descriptive analysis. Standard scaling methodology was used for quantification of sweetness intensity (SI) on the following scale: • 10% sucrose=10, • 8% sucrose=8, • 6% sucrose=6, • 4% sucrose=4, • 2% sucrose=2, and • 0% sucrose=0.
Following panelist calibration with the sucrose reference standards, the panelist rinsed their mouth with 15 mL RO water and the sweetness inhibitor sample in 15 mL RO water was then immediately taken into the mouth and gently agitated for 5 minutes. The sweet taste inhibitor sample was then expectorated and a 15 mL sample of the 10% sucrose reference solution was then immediately re-tasted, perceived SI within 15 seconds was rated on the 0-10 scale, the sample expectorated, and the mouth rinsed vigorously with 15 mL RO water. The 10% sucrose sample was then re-tasted every 15 min and SI rated. The panelist was asked to make comments on the observations of non-sweet taste attributes at each sucrose reference tasting interval.

Assay [2] concerns bitter taste of bitter compounds (quinine, denatonium benzoate, tetralone, sucrose octaacetate, pseudoephedrine, dextromethorphan). The conditions noted are these: cited from earlier work.
Where [3] appears, read: 10% sucrose re-tasted at 15 min.
Setting [4] is: 10% sucrose re-tasted at 30 min.
The mark [5] stands for this setting: 10% sucrose re-tasted at 45 min.
The mark [6] stands for this setting: 10% sucrose re-tasted at 60 min.
The mark [7] stands for this setting: 10% sucrose re-tasted at 75 min.
[8] abbreviates: 10% sucrose re-tasted at 90 min.
Setting [9] is: 10% sucrose re-tasted at 105 min.
Where [10] appears, read: 10% sucrose re-tasted at 120 min.
Where [11] appears, read: 10% sucrose tasted at 0 min after expectoration of sample (in 15 mL RO water, held 5 min).

The values below come from patent US9585905B2, “Sweet taste receptor antagonist compositions” (Four LLC, priority 2014, dated 2017).

Entries after “also recorded” stand apart in the source; their conditions may differ. Like-named read-outs stand apart in the source and are kept apart here.

Take `COc1ccc(OC(C)C(=O)O)cc1` (stereo not drawn) [Lactisole]: the SI in assay [1] (setting [3]), in assay [1] (setting [4]), in assay [1] (setting [5]), in assay [1] (setting [6]), in assay [1] (setting [7]) and in assay [1] (setting [8]) was 10 throughout. The SI in assay [1] (setting [9]) is listed as 10; in assay [1] (setting [10]) it was 10; in assay [1] (setting [11]), 12. The “sweet taste inhibition following exposure of the oral cavity (in words)” value in assay [1] is listed as “no sweet taste inhibition was observed; also recorded: caused no sweetness inhibition following expectoration”.

As for `O=S(=O)([O-])[O-].[Zn+2]` [zinc sulfate], the bitterness inhibitory activity entry in assay [2] (against denatonium benzoate) is reported as “effective bitterness inhibitor”; in assay [2] (against dextromethorphan), “no significant bitterness inhibitory activity”; in assay [2] (against pseudoephedrine), “no significant bitterness inhibitory activity”; in assay [2] (against quinine) it was “effective bitterness inhibitor”; in assay [2] (against sucrose octaacetate), “no significant bitterness inhibitory activity”; in assay [2] (against tetralone), “effective bitterness inhibitor”. Also, the “inhibition of the bitterness of quinine hydrochloride (QHCl)” value in assay [2] (up to) is on record as “up to 70%”.

B1: Miraculin (protein, UniProt P13087 30-220, looked up)
Miraculin: DSAPNPVLDIDGEKLRTGTNYYIVPVLRDHGGGLTVSATTPNGTFVCPPRVVQTRKEVDHDRPLAFFPENPKEDVVRVSTDLNINFSAFMPCRWTSSTVWRLDKYDESTGQYFVTIGGVKGNPGPETISSWFKIEEFCGSGFYKLVFCPTVCGSCKVKCGDVGIYIDQKGRRRLALSDKPFAFEFNKTVYF
Take B1: the SI in assay [1] (setting [3]), in assay [1] (setting [4]), in assay [1] (setting [5]), in assay [1] (setting [6]), in assay [1] (setting [7]) and in assay [1] (setting [8]) was 10 throughout. Moreover, the SI in assay [1] (setting [9]), in assay [1] (setting [10]) and in assay [1] (setting [11]) was 10 each time. Besides, the “sweet taste inhibition following exposure of the oral cavity (in words)” value in assay [1] is on record as “No sweet taste inhibitory effect was observed”.
